Where “and” joins values, the source holds several entries; their conditions need not be identical. Identical values can stand only once.
Experiments:
[1] = Antigenic activity listed among the identified properties of the toxoids; conditions: listed property
[2] = tested on: rabbits; test: Antigenicity test on rabbits, Test A: passive hemagglutinative value test (PHA test); type: in vivo, rabbit; conditions: reciprocal of serum dilution; individual rabbits, 1 mg s.c. with Freund's incomplete adjuvant 3 to 4 times, blood two weeks after last inoculation
Procedure: (§1) Method: Three rabbits, each having 2.5 Kg of a body weight, were subcutaneously inoculated with each 1 mg of Toxoid I together with Freund's incomplete adjuvant and the inoculation was repeated 3 to 4 times at an interval of 2 weeks. On the day of two weeks after the last inoculation, blood was collected from the rabbits and was availed for following Tests A, B and C. The same method as the preceeding was conducted employing Toxoid II.
(§2) The values were determined according to a method described by one of the present inventors, Y. Homma, in The Japan J. Exp. Med., Vol. 45, No. 5, pages 361-365 (1975), and the values were expressed as a reciprocal number to a multiplied number of the dilution of sera.

[3] = tested on: ddY mice; test: PHA value on mice; type: in vivo, mouse; conditions: 50 μg with potassium alum three times, first and second collected bloods (just before and 14th day after third inoculation)
Procedure: as §2
(§3) To a solution of Toxoid I of this invention in a concentration of 0.5 mg/ml., an equal volume of 1% potassium alum solution was added. Each 0.2 ml of the solution, in which 50 μg of Toxoid I were contained, were inoculated into ddY mice of 4 weeks old respectively three times at an interval of 2 weeks. At just before and on the 14th day after the third inoculation, bloods were collected from each mouse and the values of PHA and elastase-neutralizing activity were inspected in the same manner as with Tests A and C in Experiment 1.

[4] = tested on: rabbits; test: Antigenicity test on rabbits, Test B: precipitation in agar-gel test; type: in vivo, rabbit; conditions: 22° C., 24 hours, dilution at which precipitation line first becomes observable, individual rabbits
Procedure: as §1
In 0.01M phosphate buffer-normal saline solution (pH 7.0) which contained 0.1% of sodium azide, agarose was dissolved to form a concentration of 1.5% by weight, and 10 ml of the solution were poured in a dish having 9 cm of a diameter and the solution was left to make the agar hard. Several holes were made on the hardened agar and antigens or antisera were separately poured into every hole and the agar was left at 22° C. for 24 hours long, then, the existence of a precipitation line was inspected. The concentration of antigens is expressed by a unit of μg/ml, wherein the numerator indicates a quantity of antigens and a denominator indicates the dilution volume which is required until a precipitation line will first becomes observable.

[5] = tested on: ddY mice; test: Elastase-neutralizing activity on mice; type: in vivo, mouse
Procedure: (§4) Sera of the tested rabbits were warmed at 56° C. for 30 minutes and 0.2 ml of the sera were added to 0.2 ml of elastase solution, to which normal saline solution was added up to a volume of 2 ml in total. The solution was left for 60 minutes at 37° C., then, 1 ml of 2% casein solution was added to 1 ml of the solution. The residual elastase activity was determined with the thus mixed solution.
as §3

[6] = tested on: Casein; test: Proteinase activity on casein (Folin's method), specific activity in mPU; type: biochemical
Procedure: In Examples 1 and 2, the term "mPU/ml protein of a specific activity" signifies the proteinase activity determined by the following procedure:
Casein (2%, pH 7.4, 1 ml) is admixed with 1 ml of an appropriately diluted solution of an enzyme, and after a reaction at 40° C. for 10 minutes, 2.0 ml of a solution containing 0.1M trichloroacetic acid and 0.2M sodium acetate is immediately added for stopping a progress of the reaction. The mixture is kept at the same temperature for 20 minutes to precipitate unreacted casein completely and is filtered. 1 ml of the filtrate is subject to determination of tyrosine therein contained by the Folin's method. By the increase of 1γ of tyrosine per 1 minute, a proteinase activity of 1 mPU is to be indicated. 1 mPU×1,000 is equal to 1 PU.

[7] = tested on: rabbits; test: Antigenicity test on rabbits, Test C: elastase-neutralizing activity test of sera; type: in vivo, rabbit; conditions: elastase activity neutralized by 1 ml of anti-serum; individual rabbits
Procedure: as §1, §4

[8] = tested on: Pseudomonas aeruginosa elastase; conditions: incubation of the reagent with the enzyme; Nishino and Powers, J. Biol. Chem. (1980); cited from earlier work
[9] = Antigenic activity of formalin-treated elastase samples by precipitation line (Table 1); type: binding; conditions: quantity of antigen per dilution volume until a precipitation line first becomes visible; larger numeral = less potent
Description: Note: In the above Table 1, the antigenic activity is expressed by a unit of μg/ml, wherein the numerator indicates the quantity of antigen and the denominator indicates the dilution volume required until a precipitation line first becomes visible.

Compound: Toxoid I: toxoid prepared by inactivating Pseudomonas aeruginosa elastase with the Powers Reagent
- Antigenic activity [1]: Positive
- PHA Value [2]: 5120 and 2560
- PHA Value [3]: 640
- Antigen Concentration [4]: 15 µg/mL
- elastase-neutralizing activity ([5]; first collected blood (just before third inoculation)): 1.52 mPU/ml
- elastase-neutralizing activity ([5]; second collected blood (14th day after third inoculation)): 1.83 mPU/ml
- specific activity ([6]; casein 2%, pH 7.4, 40° C., 10 minutes): 0.06 mPU/mg protein
- Enzymatic activity ([6]; listed property): Negative
- Elastase-neutralizing Activity (mPU/ml) [7]: 15 mPU/ml and 12 mPU/ml and 10 mPU/ml

Compound: CC(C)C[C@@H](C(=O)N[C@@H](C)C(=O)NCC(N)=O)N(O)C(=O)CCl [Powers Reagent, chloroacetyl-N-hydroxy-L-leucyl-L-alanylglycinamide]
- effect on enzyme activity of elastase [8]: progressive loss of enzyme activity

Compound: crystalline elastase: purified crystalline elastase obtained from Pseudomonas aeruginosa, raw material of the toxoids
- Antigenic activity [9]: 30 µg/mL
- Antigen Concentration [4]: 15 µg/mL
- Residual Proteinase Activity (%) ([6]; elastase samples treated with formalin (HCHO), Table 1): 100%
